This passage reports TGI and GI50 results from PubChem BioAssay (NCI).

Some test systems named below: MOLT-4 leukemia; SN12C renal; SK-OV-3 ovarian; RPMI-8226 leukemia; NCI-H460 lung; NCI/ADR-RES ovarian; OVCAR-5 ovarian; EKVX NSCLC; MDA-MB-435; SK-MEL-2 melanoma.
Holding throughout (experiment): NCI-60 cell line screen, 48 h

Where “and” joins values, the source holds several entries; their conditions need not be identical. Equal entries are not always repeated.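 Dose response: 5 concentrations. Exposure: 48 h. Format: 96-well plates. Endpoint: linear interpolation; highest concentration if not reached. The concentration for 50% growth inhibition is given as GI50. TGI: total growth inhibition.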 A value given as a limit tells only on which side of the number the result lay.

As for `CC(=O)O[C@H]1C(=O)[C@]2(C)[C@@H](OC(=O)OCC(O)CO)C[C@H]3OC[C@@]3(OC(C)=O)[C@H]2[C@H](OC(=O)c2ccccc2)[C@]2(O)C[C@H](OC(=O)[C@H](O)[C@@H](NC(=O)c3ccccc3)c3ccccc3)C(C)=C1C2(C)C` (some centres not stated), the TGI in the assay on MOLT-4 leukemia was 31.3 µM; in the assay on SN12C renal, over 100 µM; in the assay on SK-OV-3 ovarian, over 100 µM; in the assay on RPMI-8226 leukemia, under 10 nM; in the assay on NCI-H460 lung, 27.6 µM; in the assay on NCI/ADR-RES ovarian, 4.94 µM. The TGI is 20.9 µM in the assay with OVCAR-5 ovarian and over 100 µM in the assay with EKVX NSCLC.
For `O=C(CCN1CCCC1)Nc1ccc2c(NCCCCc3ccccc3)c3ccccc3nc2c1`, the GI50 was 1560 nM in the assay with MDA-MB-435; 1080 nM in the assay on SN12C renal; 258 nM in the assay on RPMI-8226 leukemia; 1760 nM in the assay on SK-MEL-2 melanoma; 530 nM with NCI-H460 lung; 11.3 µM in the assay with NCI/ADR-RES ovarian. The figures for the GI50 in the assay with OVCAR-5 ovarian and with EKVX NSCLC were 1380 nM and 1390 nM, respectively. The TGI in the assay on MDA-MB-435 stood at 2.95 µM; in the assay on SN12C renal, 2.39 µM; with RPMI-8226 leukemia it was 837 nM; with SK-MEL-2 melanoma, 3.34 µM; in the assay with NCI-H460 lung it was 1.76 µM; with NCI/ADR-RES ovarian, 59.4 µM. In addition, the values for the TGI with OVCAR-5 ovarian and with EKVX NSCLC were 2.71 µM and 2.73 µM, respectively.
Take `N#Cc1ccc(Nc2nc3nc[nH]c3c(=O)[nH]2)cc1`: the TGI with MDA-MB-435 was over 100 µM; in the assay on MOLT-4 leukemia it was over 100 µM; with SN12C renal, over 100 µM; in the assay with SK-OV-3 ovarian it was over 100 µM; in the assay on RPMI-8226 leukemia, over 100000 nM; in the assay on SK-MEL-2 melanoma, over 100 µM. Also, the TGI in the assay on NCI-H460 lung, with NCI/ADR-RES ovarian, in the assay with OVCAR-5 ovarian and with EKVX NSCLC was over 100 µM in each case.
For the compound `CC(=O)OC1CC2(O)C(CCC3(C)C(c4ccc(=O)oc4)CCC32O)C2(C)CCC(O)C=C12` (configuration not stated), the TGI in the assay on MOLT-4 leukemia is 0.0054 µM; in the assay with SK-OV-3 ovarian it was 0.104 µM and 0.117 µM; in the assay on RPMI-8226 leukemia, 134 nM and 80.3 nM; with SK-MEL-2 melanoma it was 0.0542 µM and 0.0976 µM; in the assay with NCI-H460 lung, 0.0271 µM and 0.0388 µM; in the assay on NCI/ADR-RES ovarian, 0.143 µM and 0.255 µM. Also, the TGI was 0.277 µM and 0.26 µM with OVCAR-5 ovarian; 0.123 µM and 0.0477 µM in the assay with EKVX NSCLC. Besides, the GI50 with SN12C renal was 37.5 nM; in the assay on SK-OV-3 ovarian, 43.5 nM; in the assay with RPMI-8226 leukemia, 37.5 nM; in the assay with SK-MEL-2 melanoma, 37.5 nM; in the assay with NCI-H460 lung, 37.5 nM; in the assay on NCI/ADR-RES ovarian, 0.0375 µM. Further, the GI50 in the assay with OVCAR-5 ovarian was 73.8 nM; in the assay with EKVX NSCLC it was 37.5 nM.
For `CC(C)(C)CC(C)(C)Cc1ccc(OCCOCC[N+](C)(C)Cc2ccccc2)cc1`, the GI50 is 1330 nM with MDA-MB-435; 1570 nM in the assay on SN12C renal; 2710 nM in the assay with SK-OV-3 ovarian; 1800 nM with NCI-H460 lung; 21.5 µM in the assay with NCI/ADR-RES ovarian; 3860 nM in the assay with OVCAR-5 ovarian. The TGI with MDA-MB-435 was 2.66 µM; in the assay on SN12C renal, 3.04 µM; in the assay on SK-OV-3 ovarian, 12.4 µM; in the assay on NCI-H460 lung it was 3.45 µM; in the assay with NCI/ADR-RES ovarian it was 58.6 µM; in the assay on OVCAR-5 ovarian, 15.8 µM.
With `COc1cc2c(cc1-c1c(C)noc1C)ncc1nc(C3CCCCC3)n(C3CCC(OC(F)F)CC3)c12` (configuration not stated), the GI50 was 2140 nM in the assay with MDA-MB-435, 2530 nM in the assay on NCI-H460 lung, 3000 nM in the assay with OVCAR-5 ovarian and 2310 nM with EKVX NSCLC. Also, the TGI with MDA-MB-435, with NCI-H460 lung, in the assay with OVCAR-5 ovarian and in the assay with EKVX NSCLC was over 100 µM in each case.
In the case of `COc1cc(-c2ccc(-c3ccc(C(=N)N)s3)s2)cc(OC)c1OC`, the GI50 was 1640 nM in the assay with MDA-MB-435; 2400 nM in the assay with MOLT-4 leukemia; 1610 nM with SN12C renal; 5150 nM with SK-OV-3 ovarian; 2460 nM with RPMI-8226 leukemia; 1990 nM with NCI-H460 lung. Besides, the GI50 in the assay with NCI/ADR-RES ovarian was 3.44 µM; with OVCAR-5 ovarian, 1470 nM; in the assay with EKVX NSCLC it was 1920 nM. Further, the TGI in the assay on MDA-MB-435 was found to be 3.09 µM; with MOLT-4 leukemia, 5 µM; with SN12C renal it was 3.17 µM; in the assay on SK-OV-3 ovarian, 18.8 µM; in the assay on RPMI-8226 leukemia, 5720 nM; in the assay with NCI-H460 lung it was 3.64 µM. Moreover, the TGI in the assay on NCI/ADR-RES ovarian came out at 12.9 µM; with OVCAR-5 ovarian, 3.25 µM; in the assay with EKVX NSCLC, 4.85 µM.
In the case of `COc1cccc2c1C(=O)c1c(O)c3c(c(O)c1C2=O)C[C@@](O)(C(C)=O)C[C@@H]3OC1CC(N)C(O)C(C)O1` (some centres not stated), the GI50 in the assay on MDA-MB-435 was 87.7 nM; in the assay on SN12C renal it was under 17.9 nM; with SK-OV-3 ovarian, 18.9 nM; with RPMI-8226 leukemia, 13.6 nM; in the assay with SK-MEL-2 melanoma, 122 nM; with EKVX NSCLC, 266 nM.
Consider `Cc1c2cc[n+](C)cc2c(COC2OC(CO)C(O)C2O)c2c3ccccc3n(C)c12` (configuration not stated), for which the TGI in the assay on MOLT-4 leukemia was over 100 µM; with SN12C renal, 89.1 µM; with SK-OV-3 ovarian, 99.1 µM; with RPMI-8226 leukemia, over 100000 nM; with SK-MEL-2 melanoma it was over 100 µM; in the assay on NCI-H460 lung, over 100 µM. Besides, the TGI in the assay with NCI/ADR-RES ovarian, in the assay on OVCAR-5 ovarian and in the assay on EKVX NSCLC was over 100 µM each time.
For the compound `Cc1c2cc[n+](C)cc2c(C)c2c1[nH]c1ccc(O)cc12`, the TGI in the assay on MDA-MB-435 is over 100 µM; with MOLT-4 leukemia, 58.3 µM; with SN12C renal, 15.5 µM; with SK-OV-3 ovarian, over 100 µM; in the assay with RPMI-8226 leukemia it was over 100000 nM; with SK-MEL-2 melanoma, over 96.9 µM. The TGI in the assay with NCI-H460 lung is 24.7 µM; with NCI/ADR-RES ovarian it was over 100 µM; in the assay on OVCAR-5 ovarian, over 100 µM; with EKVX NSCLC, 83.4 µM.
Turning to `CCP(=O)(CC)C(Cl)(Cl)C(=O)NC`, the TGI in the assay with MDA-MB-435 is over 100 µM; with MOLT-4 leukemia it was over 100 µM; in the assay with SN12C renal, over 100 µM; in the assay on SK-OV-3 ovarian, over 100 µM; in the assay with RPMI-8226 leukemia it was over 100000 nM; in the assay on SK-MEL-2 melanoma, over 100 µM. The TGI with NCI-H460 lung, in the assay with NCI/ADR-RES ovarian and in the assay with OVCAR-5 ovarian was over 100 µM in each case.
